Among the data in patent publication US12258338B2, “Modulators of the integrated stress response pathway” (EVOTEC INTERNATIONAL GMBH, priority 2019, dated 2025) are IC50, solubility and logD values, retold here.

In general, logD refers to lipophilicity at a set pH, counting ionised and neutral species. Read a low logD as lower lipophilicity.

For data set [1], the system named is ATF4. As to the kind of experiment: HEK-ATF4 High Content Imaging assay (prevention of Tunicamycin induced ISR; ATF4 signal ratio between nucleus and cytoplasm). The format is cell-based. The essentials: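 Wild-type HEK293 cells in 0.3% FBS medium were co-treated with compounds and Tunicamycin (3.3 μM in prediluted medium, 11-fold over final) for 6 h at 37 °C. Fixed cells were immunostained for ATF4 with Hoechst nuclei; imaging gave nuclear/cytoplasmic ATF4 ratio, with nuclei counts as toxicity control.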

Data set [2] in a line: Thermodynamic (Equilibrium) solubility in selected buffer. The settings on record: aqueous buffer, thermodynamic from solid. Format: physicochemical. In short, it runs like this: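 Powdered compound at 1 mg/mL target in 50 mM phosphate pH 2.0, 50 mM acetate pH 5.5 or 50 mM phosphate pH 7.4, stirred overnight at r.t. in the dark, then 0.45 μm filtered. Filtrate quantified by UPLC-UV peak area against a 0.8 mg/mL DMSO reference.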

In data set [3] the target is T1, human ERG potassium channel (hERG) (Homo sapiens, UniProt Q12809).
T1 construct: expressed in transfected cells; host or cells: HEK293, stably transfected, tetracycline-inducible promoter
T1 sequence (Q12809 whole entry): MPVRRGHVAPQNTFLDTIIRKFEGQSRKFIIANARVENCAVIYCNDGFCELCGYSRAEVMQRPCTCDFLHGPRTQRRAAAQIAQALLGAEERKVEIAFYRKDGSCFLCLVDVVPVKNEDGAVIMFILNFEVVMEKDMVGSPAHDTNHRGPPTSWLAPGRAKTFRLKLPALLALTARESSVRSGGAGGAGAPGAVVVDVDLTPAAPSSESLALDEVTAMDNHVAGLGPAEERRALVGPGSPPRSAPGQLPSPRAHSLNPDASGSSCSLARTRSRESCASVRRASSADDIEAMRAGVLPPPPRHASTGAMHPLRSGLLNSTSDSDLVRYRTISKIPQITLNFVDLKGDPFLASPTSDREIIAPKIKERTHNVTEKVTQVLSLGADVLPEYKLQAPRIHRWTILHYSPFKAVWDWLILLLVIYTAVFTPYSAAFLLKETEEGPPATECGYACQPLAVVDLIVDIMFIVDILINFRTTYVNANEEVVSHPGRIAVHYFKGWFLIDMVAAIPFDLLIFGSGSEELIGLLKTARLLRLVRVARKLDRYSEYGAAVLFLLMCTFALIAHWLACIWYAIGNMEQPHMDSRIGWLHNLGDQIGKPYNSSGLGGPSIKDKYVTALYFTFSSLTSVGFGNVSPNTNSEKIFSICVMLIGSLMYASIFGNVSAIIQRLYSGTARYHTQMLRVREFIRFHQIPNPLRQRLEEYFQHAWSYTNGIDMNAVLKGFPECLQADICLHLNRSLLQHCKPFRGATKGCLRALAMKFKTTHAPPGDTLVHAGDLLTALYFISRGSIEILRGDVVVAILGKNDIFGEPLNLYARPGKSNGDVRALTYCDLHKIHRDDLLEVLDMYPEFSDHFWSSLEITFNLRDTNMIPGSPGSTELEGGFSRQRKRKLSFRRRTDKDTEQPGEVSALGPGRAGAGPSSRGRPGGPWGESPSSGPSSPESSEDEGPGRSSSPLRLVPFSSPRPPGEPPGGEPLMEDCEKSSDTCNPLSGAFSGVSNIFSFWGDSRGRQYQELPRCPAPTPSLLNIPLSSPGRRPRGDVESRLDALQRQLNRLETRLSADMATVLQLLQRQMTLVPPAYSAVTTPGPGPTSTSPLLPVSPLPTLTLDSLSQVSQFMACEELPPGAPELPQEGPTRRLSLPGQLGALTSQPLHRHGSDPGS
Nature of the data set: hERG channel tail current recording using in vitro Rapid ICE (automated patch-clamp, QPatch HTX). The format is cell-based. In short, it runs like this: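 Automated patch clamp on tetracycline-induced HEK293 hERG cells; pulse −80 to −50 mV 200 ms, +20 mV 4.8 s, −50 mV 5 s tail, extracellular pH 7.4. Compound at 0.3, 3, 30 μM (0.3% DMSO), 5 min exposure; tail current versus vehicle gives % inhibition and estimated IC50.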

Data set [4] can be described thus: Log D 7.4 assay (1-octanol / phosphate buffer pH 7.4). The format is physicochemical. As for the experimental part:
Phosphate buffer (1 M) was diluted to 20 mM with deionised water and adjusted to pH 7.4 (±0.05) with phosphoric acid or sodium hydroxide. A 1:1 mixture of phosphate buffer (20 mM) and 1-octanol were saturated by tumbling overnight after which time the two phases were separated. Using an automated liquid handler the following procedure was carried out: 20 mM DMSO stocks of assay and control compounds were reformatted to provide cassettes of 4 compounds per well giving a final concentration of 5 mM per compound. In duplicate 5 μL of the cassetted compounds were added to 495 μL 1-octanol (saturated with buffer) followed by 495 μL of buffer (saturated with 1-octanol) in a 96-well plate giving final incubation concentrations of 25 μM (50 μM max concentration in either layer if all compound partitioned into a single matrix). The layers were mixed by aspirating and dispensing the buffer and octanol layers into one another three times. The plate was sealed, shaken for 120 minutes and then centrifuged at 25° C. for 15 min at 4600 rpm. The 1-octanol and buffer layer were sampled separately (ensuring no cross contamination) and the respective samples diluted with 60:40 ACN:0.1 M ammonium acetate pH 7.4 (containing external standard; Sulfisoxazole, assay concentration 120 nM) to obtain final theoretical maximum concentrations of the 1-octanol layer of 0.025 μM, 0.5 μM and a buffer layer concentration of 0.5 μM. The second buffer sample was prepared by diluting the assay buffer layer with acetonitrile (containing external standard; Sulfisoxazole, assay concentration 120 nM) to give a theoretical maximum concentration of 20 μM. The analytical samples were analysed by LC-MS/MS and the Log D calculated as shown:
[formula] Where PA=Peak area and ES=External standard

Setting [5] is: Table 24 category key, read-out: HEK-ATF4 Activity*.
Where [6] appears, read: acetate buffer 50 mM, pH 5, Table 24, read-out: Solubility (μg/mL) pH 5.
The mark [7] stands for this setting: phosphate buffer 50 mM, pH 2, Table 24, read-out: Solubility (μg/mL) pH 2.
[8] abbreviates: phosphate buffer 50 mM, pH 7.4, Table 24, read-out: Solubility (μg/mL) pH 7.4.
Where [9] appears, read: Homo sapiens, Wild-type HEK293 cells, Tunicamycin induced ISR, 6 h, read-out: IIEK-ATF4 Activity.
The mark [10] stands for this setting: acetate buffer 50 mM, pH 5.5, Table 25, read-out: Solubility (μg/mL) pH 5.5.
The mark [11] stands for this setting: phosphate buffer 50 mM, pH 2.0, Table 25, read-out: Solubility (μg/mL) pH 2.0.
The mark [12] stands for this setting: phosphate buffer 50 mM, pH 7.4, Table 25, read-out: Solubility (μg/mL) pH 7.4.

≈ marks a conversion by molar mass, not a printed value. Read-outs that look alike come from different tables or passages of the source.

For the molecule `O=C(COc1ccc(Cl)c(F)c1)N[C@@H]1CC[C@@H](c2nnc([C@H]3C[C@@H](OC(F)(F)F)C3)o2)OC1` [WO201904 6779 Ex 1, reference compound], the IC50 in data set [1] (setting [5]) was in the range of 1 to 500 nM; in data set [3] (Table 24) it was 1000 to 5000 nM. Further, the solubility in data set [2] (setting [6]), in data set [2] (setting [7]) and in data set [2] (setting [8]) was less than 1 µg/mL throughout. In data set [4], this molecule registered a logD at 120 min of 3.6.
As for `O=C(COc1ccc(Cl)c(F)c1)N[C@H]1CC[C@H](c2nnc(OCCOC(F)F)o2)NC1` [Example 75, 2-(4-chloro-3-fluorophenoxy)-N-[(3S,6R)-6-{5-[2-(difluoromethoxy)ethoxy]-1,3,4-oxadiazol-2-yl}piperidin-3-yl]acetamide], the IC50 in data set [1] (setting [9]) lay in the range of 1 to 500 nM; in data set [3] (Table 26), 1000 to 5000 nM. In addition, the solubility in data set [2] (setting [10]) was found to be 26 µg/mL (≈ 55.9 µM); in data set [2] (setting [11]), 713 µg/mL (≈ 1530 µM); in data set [2] (setting [12]), 22 µg/mL (≈ 47.3 µM).
As to `O=C(COc1ccc(Cl)c(F)c1)N[C@H]1CC[C@H](c2nnc(N3CC(OC4CC4)C3)o2)NC1` [Example 95, 2-(4-chloro-3-fluorophenoxy)-N-[(3S,6R)-6-[5-(3-cyclopropoxyazetidin-1-yl)-1,3,4-oxadiazol-2-yl]piperidin-3-yl]acetamide], the IC50 lay in the range of 1 to 500 nM in data set [1] (setting [9]) and 1000 to 5000 nM in data set [3] (Table 26). Further, the solubility worked out at 378 µg/mL (≈ 811 µM) in data set [2] (setting [10]), 970 µg/mL (≈ 2080 µM) in data set [2] (setting [11]) and 230 µg/mL (≈ 494 µM) in data set [2] (setting [12]).
Regarding `O=C(COc1ccc(Cl)c(F)c1)N[C@@H]1CC[C@@H](c2nnc(COC(F)(F)F)o2)OC1` [WO201904 6779 Ex 30, reference compound], the IC50 in data set [1] (setting [5]) was 500 to 2000 nM; in data set [3] (Table 24), 1 to 1000 nM. The solubility in data set [2] (setting [6]), in data set [2] (setting [7]) and in data set [2] (setting [8]) was 3 µg/mL (≈ 6.61 µM) each time. For the same molecule, the logD at 120 min in data set [4] came to 2.9.
